Assay results: article PMC11567856, “A novel peptide‐based tau aggregation inhibitor as a potential therapeutic for Alzheimer's disease and other tauopathies” (Alzheimer's & Dementia, 2024)
Where a SMILES comes first, the peptide text is derived from it. [ ]: non-standard residue; d: D form.

Assays:
[1] = system: Tau repeat domain (RD) with the P301S mutation fused to mCer and mClo, HEK293 biosensor cells; test: Tau fibril seeding in FRET Tau biosensor cells; assay type: cell-based, human
Method: Tau biosensor cells culture: RD P301S Tau biosensor cells have been previously described,[45] and in this case v2L cells were used. Cells were cultured in 10 cm dishes containing Dulbecco's Modified Eagle's Medium (DMEM) (Gibco) enriched with 10% FBS (HyClone), 1% penicillin/streptomycin (Gibco), and 1% GlutaMAX (Gibco) at 37°C with 5% CO2 in a humidified incubator.
5 µM of tau fibrils (monomer equivalent) were incubated in PBS with peptide RI‐AG03 or scramble (0–500 µM) at 300 rpm agitation at 4°C for 16 h. The reaction was stopped by flash freezing in liquid nitrogen and stored at –20°C. Tau biosensor cells were plated at a density of 30,000 cells in 120 µL of media per well in a 96‐well plate. After 18 h, using Lipofectamine 2000 cells were transduced with 10 nM of treated fibrils that had been briefly sonicated for 30 s at 65 Amp (QSonica). Lipofectamine complexes were formed in 30 µL consisting of 14.17 µL Opti‐MEM (Gibco), 15 µL of treated fibrils diluted in PBS, and 0.83 µL lipofectamine 2000 (Invitrogen), bringing the total volume to 150 µL. […] Aggregates in Tau biosensors (10,000 minimum) were quantified by FRET flow cytometry in a LSRFortessa SORP (BD Biosciences). To detect the cerulean signal, cells were excited with a 405 nm laser, and fluorescence was captured at […]. For clover signal, cells were excited with a 488 nm laser and fluorescence was detected at 525/50 nm. Flow cytometry data were analyzed using a gating strategy previously described.[45], [47] The percentage of cells with positive FRET signal were quantified. Each condition was analyzed in quadruplicate. […]
To test RI‐AG03 efficacy in mammalian cells, we utilized a fluorescence resonance energy transfer (FRET) biosensor HEK293 cell line that stably expresses the Tau repeat domain (RD) with the P301S mutation fused to mCer and mClo. These cells[45] or prior generations[71] have been used extensively to quantify Tau seeding activity and measure intracellular aggregation.[71] […] Seeded aggregation was quantified by the percentage of FRET positivity.

[2] = system: hTau^2N4R aggregates in Elav/hTau^2N4R flies; test: AFM of insoluble Tau fraction from fly heads; assay type: in vivo, Drosophila melanogaster; conditions: 6 weeks of treatment, 0.08 µM inhibitor (Figure 6 legend), insoluble Tau prep, n = 3, p = 0.0045
Method: […] Decapitated fly heads were homogenized in TBS/sucrose buffer (50 mM Tris‐HCl pH 7.4, 175 mM NaCl, 1 M sucrose, 5 mM EDTA and protease inhibitor cocktail). Samples were spun for 2 min at 1000 g, retaining the supernatant, which was then spun at 100,000 g for 30 min at 4°C. The supernatant included the aqueous soluble fraction and monomeric Tau “NS1.” The pellet was re‐suspended at ∼20°C–25°C in 5% SDS/TBS buffer (50 mM Tris‐HCl pH 7.4, 175 mM NaCl, 5% SDS, and protease inhibitor cocktail) and spun at 100,000 g for 30 at 25°C. The pellet “NP1” was washed three times with water to remove the remaining SDS from the fractionation and re‐suspended in 1X PBS. A solid glass bead was added to each sample and incubated overnight in a rotor at 4°C. AFM: NP1 (5 µL) was diluted in 1X PBS and 25 µL of the sample was placed in a freshly cleaved 10 mm mica disc. These were incubated at ∼20°C–25°C for 5 min. Samples were rinsed four times with ultrapure water and dried with compressed air. Samples were imaged in the air with a digital multimode Nanoscope IV AFM operating in tapping mode with an aluminum‐coated non‐contact/Tapping mode probe (resonance frequency 320 kHz and force constant 42 N/m). The images are representative of the sample and were taken at random points on the sample with a scan rate of 1–2 Hz. […] Quantification of aggregates was carried out using ImageJ software.

[3] = system: HEK‐293 cells
Method: (B) LDH cytotoxicity assay using varying concentrations of RI‐AG03 co‐incubated with HEK‐293 cells. LDH Cytotoxicity (%) denotes lysed cells. Cells were seeded to a 96‐well plate at 10,000 cells/100 µL per well. […] Experiments were conducted in triplicate.

[4] = system: Elav/hTau^2N4R flies; test: Drosophila survival assay, hTau^2N4R pan-neuronal; assay type: in vivo, Drosophila melanogaster; parameters: unit of the concentration uncertain
Method: Drosophila survival assays: Elav‐GAL4 (BDSC_458) female flies were crossed with male UAS‐Tau^2N4R flies or with gender‐matched Oregon‐R (WT) flies. Survival of 10 cohorts of 10 male flies expressing hTau^2N4R pan‐neurally and reared on a diet containing 0.08 or 0.8 µM RI‐AG03 was assessed as previously described.[49] Statistics and reproducibility: Data were collected in ≥triplicate and expressed as mean ± standard error of the mean. […] This test analyzed outcomes related to the treatment effects of peptide inhibitors against Tau aggregation at multiple time points, controlling for individual variability and ensuring that changes observed were significant. For the Drosophila survival data, a Kaplan–Meier survival curve was plotted, and a Log‐rank (Mantel–Cox) test was performed on the data using GraphPad Prism software[49] This test analyzed survival outcomes by comparing survival distribution between groups, without assuming a specific distribution for survival times. AFM data were analyzed by unpaired t‐test with Welch's correction as we made the assumption, from previous similar studies, that the two populations (Tau enriched preps isolated from flies fed or not fed RI‐AG03) had the […].

CC[C@@H](C)[C@@H](NC(=O)[C@@H](CCCCNC(C)=O)NC(=O)[C@@H](Cc1ccc(O)cc1)NC(=O)[C@@H](CCCCN)NC(=O)[C@H]1CCCN1C(=O)CNC(=O)[C@@H](CCCNC(=N)N)NC(=O)[C@@H](CCCNC(=N)N)NC(=O)[C@@H](CCCNC(=N)N)NC(=O)[C@@H](CCCNC(=N)N)NC(=O)[C@@H](CCCNC(=N)N)NC(=O)[C@@H](CCCNC(=N)N)NC(=O)[C@@H](CCCNC(=N)N)NC(=O)[C@@H](CCCNC(=N)N)NC(C)=O)C(=O)N[C@H](CCC(N)=O)C(=O)N[C@@H](C(=O)NCC(=O)N[C@H](CCCNC(=N)N)C(N)=O)C(C)C [RI‐AG03] (Ac-[dR][dR][dR][dR][dR][dR][dR][dR]G[dP][dK][dY][dK](Ac)[dI][dQ][dV]G[dR]-NH2)
concentrations with peptide‐induced toxicity (decrease in FRET positivity) ([1]; biosensor cells, fibrils preincubated with 0–500 µM peptide, Figure 5C): above 100 µM | aggregates (green puncta) in biosensor cells by fluorescence microscopy ([1]; preformed fibrils incubated with 30 µM peptide, compared with scramble peptide): fewer aggregates | reduction in oligomeric and fibrillar Tau species (AFM) [2]: 73% | concentration at which toxicity begins to increase (LDH cytotoxicity) [3]: 40 µM | doses found non‐toxic (LDH cytotoxicity) [3]: up to 30 µM | median survival of hTau^2N4R flies, high dose ([4]; high‐dose (0.8 µM) in diet, pan‐neuronal hTau^2N4R male flies, untreated 26 days, n = 100, p < 0.0005): 35 days | improvement of median survival of hTau^2N4R flies, high dose ([4]; high‐dose (0.8 µM) in diet, versus untreated 26 days, n = 100): 35% | median survival of hTau^2N4R flies, low dose ([4]; low‐dose (0.08 µM) in diet, pan‐neuronal hTau^2N4R male flies, untreated 26 days, n = 100, p < 0.0005): 33 days | improvement of median survival of hTau^2N4R flies, low dose ([4]; low‐dose (0.08 µM) in diet, versus untreated 26 days, n = 100): 27%
